Test results taken from patent publication US8097585B2, “Methods of treating inflammation by administration of heme oxygenase-1 and products of heme degradation” (priority 2002, dated 2012).
Structures can show the parent of a compound that is named as a salt.

Legend:
[1] = tested on: DBA/2 cardiac allografts in B6AF1 recipients; assay: Heterotopic cardiac allograft transplantation, graft survival; type: in vivo, mice
Protocol: Animals. Male DBA/2 (H-2^d), B6AF1 (H-2^k/d,b) and FVB (H-2^q) mice were purchased from Jackson Lab. Inc. (Bar Harbor, Me.). They were maintained in the institutional specific-pathogen free facility, which has an appropriate light cycle with free access to water and chow ad libitum, and used for experiments at age of 6-10 weeks.
Cardiac transplantation. DBA2/J and B6AF1 mice were used as donor and recipient, respectively. Heterotopic heart transplantation was carried out according to the procedure of Corry and Russell (Corry et al., Transplant Proc. 5(1):733-5, 1973). […] Secondary heart grafting into the neck was performed using a cuff technique as described previously (Matsuura et al., Transplantation 51(4):896-8, 1991). Briefly, the heart graft was harvested from either DBA2/J (donor strain) or FVB (third-party strain) mice. The right jugular vein and the right common carotid artery of recipient were dissected, and a cuff (polyethylene or polyimide) was connected to these vessels. The graft aorta and pulmonary artery were sleeved over the cuff on the recipient's common carotid artery and the jugular vein, respectively, and fixed with a ligature. After transplantation, beating of the graft was monitored by daily palpation, and scored +1 to +4 according to the strength of graft contractions. Graft rejection was defined as cessation of beating, and was confirmed by direct inspection followed by histological examination.
Donor and recipient mice were treated either with CoPPIX (5 mg/kg/day), ZnPPIX (5 mg/kg/day) or biliverdin (administered once, twice or three times per day at a dose of 50 μmol/kg/dose). All reagents were administered by intraperitoneal (i.p.) injection. Donor animals were treated for 2 days, starting from 2 days before graft harvest (day-2 and day-1). Treatment of recipient mice was initiated one day before transplantation, and continued until 13 days post-transplant (day-1 to day 13). For the experiments using donor splenocyte infusion (DSI) on day-7 (DSI (D-7)), treatments of recipient animals (either with CoPPIX or ZnPPIX) started from day-8 and were terminated on day 6. Recipients received no further treatment. Spleen cells (2×10^7) isolated from DBA/2J mice as described herein were used for DSI treatment. The cells were injected via the penile vein with 200 μl of 0.9% saline solution.
Statistics. Cardiac graft survival was plotted by the Kaplan-Meier method, and a log-rank test was applied to compare statistical significance. Expression levels of HO-1/α-actin protein are expressed as mean±standard deviation. Other data are expressed as mean±standard error of the mean (mean±SEM). Intergroup statistical analysis was performed by one-way ANOVA, and Fisher's PSLD was used for a post-hoc test. A comparison was considered statistically significant when the p-value was <0.05.

[2] = tested on: DBA/2 islets in diabetic B6AF1 recipients; assay: Allogeneic islet transplantation, graft survival and tolerance test; type: in vivo, mice
Protocol: Animals. Male DBA/2, B6AF1 and DBA/1 mice 6-8 week of age (Jackson) are used in the experiments. Mice were kept for 2 weeks at 4 mice/cage and fed normal laboratory chow before using for the experiment.
Treatment protocol. Recipients were rendered diabetic using streptozotocin (STZ, 225 mg/kg). Five days after STZ administration, animals with two consecutive blood glucose levels exceeding 350 mg/dl are used as recipients. Islets (500) are transplanted under the kidney capsule of the recipients.
Reagents. Cobalt protoporphyrin (CoPPIX, Porphyrin Products, Logan, Utah), biliverdin dihydrochloride and bilirubin (ICN Biomedicals Inc., OH) were dissolved in a small amount of 0.2 M NaOH, subsequently adjusted to a pH of 7.4 with 1 M HCl, and diluted in 1×PBS. The stock solutions (CoPPIX=2 mg/ml, biliverdin=3.2 mg/ml, bilirubin=0.5 mg/ml) were aliquoted and kept at −70° C. until used. Light exposure was limited as much as possible.
Induction of HO-1/Administration of biliverdin/bilirubin. When given to the donor, CoPPIX (20 mg/kg) was given 24 hours before islet isolation to induce HO-1 expression. To verify HO-1 expression in different organs after CoPP treatment, tissue samples are collected 24 hours after treatment and snap frozen in liquid nitrogen. Immunohistological analysis of HO-1 expression is performed using an anti-HO-1 antibody. CoPPIX (20 mg/kg) was administrated to the recipient intraperitoneally (i.p.) on day-1, 1, 3, 5 and 7. Biliverdin (50 μmol/kg) or bilirubin (8.5 μmol/kg) was given intraperitoneally to the donor one hour before islet isolation. For the recipient, biliverdin (50 μmol/kg) or bilirubin ([…]) was administered intraperitoneally either daily or twice per day from day-1 until day 13. No further treatment was given afterwards.
Measurement of Glucose level. Glucose levels were tested twice weekly after transplantation. Glucose levels of <200 mg/dl were considered normoglycemic. Grafts were considered rejected when two consecutive glucose levels were >300 mg/dl.
Tolerance test. The first graft was removed from a number of animals that had islets surviving long-term (longer than 100 days) by doing a nephrectomy. Islets syngeneic with the original donor were transplanted under the contralateral kidney capsule without further treatment. If those second transplanted islets also survived longer than 100 days without further treatment, the recipients were considered tolerant.

[3] = long-term acceptors after biliverdin, second set transplantation, n=3

Structure (SMILES) | grafts surviving for more than 100 days ([1]; biliverdin two (every 12 hours) or three (every 8 hours) times per day, 50 μmol/kg per dose, 4 of 6) | acceptance of secondary heart graft from the donor strain [1, 3] | rejection of third party (FVB) graft [1, 3] | graft median survival time (MST) ([1]; one dose per day i.p. (ZnPPIX 5 mg/kg; biliverdin 50 μmol/kg), untreated 11.5 days) | antigen specific tolerance ([2]; long-term survival animals) | long-term surviving islets ([2]; treatment of the recipient only) | grafts surviving long-term, >100 days ([1]; 5 mg/kg/day i.p., donor from day-2, recipient day-1 to day 13, 2 of 6) | MST of the other 4 rejected grafts ([1]; CoPPIX 5 mg/kg/day i.p.) | allografts surviving over 100 days ([1]; CoPPIX (donor 2 days, recipient day-8 to day 6) plus DSI (D-7), 7/7) | grafts surviving long-term for more than 100 days ([1]; CoPPIX together with DSI (D0), 7 of 8) | islet allograft survival ([2]; CoPP 20 mg/kg, donor one day before, recipient days −1, 1, 3, 5 and 7) | islet allograft survival ([2]; CoPP, HO-1 induced only in the donor) | acceptance of 2nd graft (DBA/2 islets) in tolerance test ([2]; all five animals, no further treatment) | third party grafts in tolerance test ([2]; n=3)
C=CC1=C(C)/C(=C/C2=NC(=C\c3[nH]c(/C=C4\NC(=O)C(C)=C4C=C)c(C)c3CCC(=O)O)/C(CCC(=O)O)=C2C)NC1=O [biliverdin, biliverdin dihydrochloride] | 66.7% | more than 60 days | ≤ 11 days | 20.5 days | seen in some | significant percentage of long-term surviving islets |  |  |  |  |  |  |  | 
C=CC1=C(C)c2cc3[n-]c(cc4nc(cc5[n-]c(cc1n2)c(C)c5CCC(=O)[O-])C(CCC(=O)[O-])=C4C)c(C)c3C=C.[Co+2].[H+].[H+] [CoPP, Cobalt protoporphyrin] |  |  |  |  |  |  | 33.3% | 18 days | 100% | 87.5% | prolongation of survival in general but also to some islets surviving long-term | prolonged survival and function of the islets in the recipient but also to an occasional long-term surviving graft | > 100 days | rejected rapidly
